The record followed here is patent publication US20020107209A1, “Triterpene saponins from soybeans for treating kidney disease” (priority 2000, published 2002).

Molecules are shown by their SMILES.

For data set [1], the system named is rodent models of polycystic kidney disease (PKD). The experiment in a line: Casein-based diet supplemented with crude saponin-enriched alcohol extract (SEAE), ginseng, genistein or L-arginine; earlier experiment. Type of data set: in vivo, mice. The conditions noted are these: supplementation of the casein-based diet. The source says:
These beneficial effects appeared unique to the saponins derived from soybeans as supplementation of the casein-based diet with (1) ginseng (also a saponin), (2) genistein, (an isoflavone naturally present in SPI) or (3) addition of the amino acid L-arginine to the casein to mimic the amino acid composition to that of the SPI had no effect on disease progression.
The major component of the SEAE was identified as soyasaponin Bb with smaller amounts of two or three unidentified saponins and trace amounts of genistein and daidzen, two naturally occurring isoflavones in soy protein. The inventors determined that the Group B soybean-derived saponins (soyasaponins), especially soyasaponin Bb, was an important contributor to the attenuation of cyst growth.

The next data set deals with pcy mouse model of PKD. The data set is described as follows: 90-day feeding trial in pcy mice: casein-based diet supplemented with Novasoy 400 or soyasaponin Bb concentrate. It counts as in vivo. The conditions noted are these: for effect on attenuation of kidney size and cyst development: pcy mouse model of PKD, summary in words. As to the method: Experiments were conducted with a purified soyasaponin Bb concentrate for a feeding trial in the pcy mice.
The feeding trial, which followed the acquisition of this soyasaponin Bb concentrate, explored the possibility that this concentrate was an important contributor to the attenuation of disease progression in the pcy mouse. The protocol used in this trial involved the random assignment of young, male pcy mice to one of three dietary treatments and feeding these diets for 90 days, the usual time frame in these studies. The diets used in this feeding trial were:1) an unsupplemented casein-based diet, known to increase the severity of the renal cystic disease; 2) this casein-based diet supplemented with Novasoy 400®, a new, isoflavone-enhanced product containing low levels of the soyasaponins (ADM, Decatur, Ill.) or 3) the casein-based diet supplemented with the purified soyasaponin Bb concentrate prepared by Drs. Collins and Sarr.
After three months the mice were humanely euthanized and the kidney and liver tissues removed and stored at −80 degrees Celsius until measurements of tissue water content and cell volume could be taken. Organ water content was determined in the kidney and liver by measuring the difference between the wet weight of the tissue and its subsequent weight after freeze-drying. Plasma, obtained by centrifugation of the cardiac blood, was used for standard measurements of renal function, including total protein, urea, and creatinine concentrations. Soy protein fractions enriched in the soyasaponins are reportedly hypocholesterolemic when fed to hamsters (Gatchalian-Yee M. et al. Nutrition. 13:633-639,1997) and plasma cholesterol levels were also measured in the present experiment whenever the sample volume was adequate. Differences between treatment effects were assessed by a one-way ANOVA and the significance of these differences between means obtained by the Tukey's Honestly Significant Different Test.

Setting [2] is: pcy mice, 90 days, plasma from cardiac blood, mean ± SEM.
Where [3] appears, read: pcy mice, 90 days, versus casein.
Where [4] appears, read: pcy mice, 90 days, versus unsupplemented casein diet.
Setting [5] is: pcy mice, diet fed 90 days, mean ± SEM.
Where [6] appears, read: pcy mice, diet fed 90 days, mean ± SEM, 8 animals/group.

For the compound `N=C(N)NCCC[C@H](N)C(=O)O` [L-arginine], the “effect on disease progression” value in data set [1] is listed as “no effect”.

As to `O=c1c(-c2ccc(O)cc2)coc2cc(O)cc(O)c12` [genistein], the “effect on disease progression” value in data set [1] is given as “no effect”.

`C[C@@H]1O[C@@H](O[C@H]2[C@H](O[C@H]3[C@H](O[C@H]4CC[C@@]5(C)[C@@H](CC[C@]6(C)[C@@H]5CC=C5[C@@H]7CC(C)(C)C[C@@H](O)[C@]7(C)CC[C@]56C)[C@@]4(C)CO)O[C@H](C(=O)O)[C@@H](O)[C@@H]3O)O[C@H](CO)[C@H](O)[C@@H]2O)[C@H](O)[C@H](O)[C@H]1O` [soyasaponin Bb, 3-O-(α-L-rhamnosyl-1→2-β-D-galactosyl-1→2-β-D-glucuronosyl)-soyasapogenol B] came in with a daily food intake in the data set with pcy mouse model of PKD (pcy mice, 90-day feeding trial) of 3.3 ± 0.0 g/day. In the data set on pcy mouse model of PKD (setting [2]), this compound yielded a Plasma cholesterol of 4.8 ± 0.3 mM/L, a Plasma creatinine of 17.5 ± 1.9 µM, a Plasma total protein of 54.3 ± 1.1 g/L and a Plasma urea of 19.5 ± 3.0 mM/L. Also, in the data set with pcy mouse model of PKD (setting [3]), the “absolute and relative kidney weight and kidney water content” value is “marked reduction”; the “relative liver weight” value is “not observed”. Further, in the data set with pcy mouse model of PKD (setting [4]), the “plasma cholesterol levels” value is listed as “lesser hypocholesterolemic effect” and the “plasma creatinine levels” value is given as “markedly reduced”. The “Kidney water content (g/left kidney)” value with pcy mouse model of PKD (pcy mice, 90 days, wet weight minus freeze-dried weight, mean ± SEM) is given as 0.61 ± 0.1 g/left kidney. In the data set with pcy mouse model of PKD (setting [5]), the Final body wt was 25.1 ± 0.1 g, the Liver water content is 0.82 ± 0.0 g, the Liver wt is listed as 1.2 ± 0.2 g and the “Liver wt (g/100 g body wt)” value worked out at 4.6 ± 0.1 g/100 g body wt. In the data set with pcy mouse model of PKD (setting [6]), the Total kidney wt is 1.3 ± 0.1 g and the “Total kidney wt (g/100 g body wt)” value turned out to be 5.2 ± 0.3 g/100 g body wt. Further, the “effect on attenuation of kidney size and cyst development” value in the data set on pcy mouse model of PKD is reported as “important beneficial effect”. The “effect on attenuation of kidney size and cyst development” value in the data set on pcy mouse model of PKD (listed as soyasaponin Bb concentrate) is “marked beneficial effect”.
